Reference: US8828997B2, “2,3-dihydro-1H-imidazo(1,2-a)pyrimidin-5-one derivatives, preparation thereof, and pharmaceutical use thereof” (Sanofi, priority 2009, dated 2014)

How the values were obtained:
Type in all cases: cell-based
[1] = tested on: translocation of the LC3 protein in Hela GFP-LC3 cells; test: Translocation of the LC3 protein in Hela human cells measured by image analysis cytometry (test C, autophagy); conditions: EBSS + 10 μM hydroxychloroquine, cells with LC3 granulations, absolute IC50
Method: Inhibitory activity of the molecules on autophagy is measured by means of the translocation of the LC3 protein from the cytoplasm to the autophagosomes. For this, Hela cells were transfected with a vector encoding the chimeric protein GFP-LC3. A Hela clone stably expressing the GFP-LC3 protein was selected.
Study of the Translocation of the LC3 Protein in Hela Human Cells, Measured by Image Analysis Cytometry (Test C):
(§1) On day 1, the Hela GFP-LC3 cells are seeded into 96-well plates coated with poly-D-lysine (Greiner, #655946) at the concentration of 15000 cells/well in 200 μl of DMEM medium (DMEM Gibco #11960-044) containing 10% of foetal calf serum (FCS Gibco, #10500-056) and 1% glutamine (L-Glu Gibco #25030-024), and incubated at 37° C., 5% CO2, overnight.
On day 2, the cells are washed twice with EBSS (Sigma #E3024). The cells are then incubated in EBSS, 10 μM hydroxychloroquine and test products, for 2 hours at 37° C. in the presence of 5% CO2. The molecules are diluted in dimethyl sulphoxide (DMSO Sigma #D2650), the final DMSO percentage being 0.1%. The molecules are tested at increasing concentrations in a range that can extend from 10 nM to 1 μM.
After this incubation, the cells are fixed with 4% paraformaldehyde (Sigma #HT501128 4L) for 10 min. The cells are then washed twice with PBS and the nuclei then stained with 2 μg/ml of Hoechst 33342 (Invitrogen #H3570). The 96-well plates are then read with the iCyte image analysis cytometer (Compucyte).
The activity of the product is translated to IC50, obtained from a dose-response curve of various concentrations tested and representing the dose giving 50% specific inhibition (absolute IC50). 2 independent experiments make it possible to calculate the mean of the IC50 values.

[2] = tested on: AKT protein phosphorylated on serine 473 (P-AKT-S473) in PC3 human prostate carcinoma cells; test: pAKT expression in PC3 human prostate carcinoma cells measured by MSD Multi-spot Biomarker detection (test B); conditions: MSD sandwich immunoassay, 1 to 2 h incubation, absolute IC50
Method: The inhibitory activity of the molecules on AKT phosphorylation is measured either by western blotting using the technique described below, or by the MSD Multi-spot Biomarker detection technique from Meso Scale Discovery also described below.
Study of pAKT Expression in PC3 Human Prostate Carcinoma Cells Measured by the MSD Multi-Spot Biomarker Detection Technique from Meso Scale Discovery (Test B):
This test is based on measuring the expression of the AKT protein phosphorylated on serine 473 (P-AKT-S473), in the PC3 human prostate carcinoma line, by means of the technique based on a sandwich immunoassay using the MSD Multi-spot Biomarker Detection kit from Meso Scale Discovery: phospho-Akt (Ser473) whole cell lysate kit (#K151CAD) or phospho-Akt (Ser473)/Total Akt whole cell lysate kit (#K151OOD). The primary antibody specific for P-AKT-S473 (Kit #K151CAD) is coated onto an electrode in each well of the 96-well plates of the MSD kit: after the addition of a protein lysate to each well, the signal is visualised by adding a secondary detection antibody labelled with an electrochemoluminescent compound. The procedure followed is that described in the kit.
as §1, with “PC3” for “Hela GFP-LC3”, “(TPP, #92096)” for “coated with poly-D-lysine (Greiner, #655946)”, “35 000” for “15000”
On day 2, the cells are incubated in the presence or absence of the test products for 1 to 2 h at 37° C. in the presence of 5% of CO2. The molecules, diluted in dimethyl sulphoxide (DMSO Sigma #D2650), are added from a 20-times concentrated stock solution, the final percentage of DMSO being 0.1%. The molecules are tested either at a single concentration of less than or equal to 10 μM, or at increasing concentrations in a range that can extend from less than 1 nM to 10 μM.
After this incubation, the cells are lysed for the preparation of the proteins. For this, after the culture medium has been drawn off, 50 μl of complete Tris Lysis Buffer of the MSD kit containing the protease and phosphatase inhibitor solutions are added to the wells and the cells are lysed for 1 h at 4° C. with shaking. At this stage, the plates containing the lysates can be stored at −20° C. or at −80° C.
The wells of the 96-well plates of the MSD kit are saturated for 1 h at ambient temperature with the blocking solution of the MSD kit. Four washes are carried out with 150 μl of Tris Wash Buffer of the MSD kit. The lysates previously prepared are transferred into the 96-well multi-spot plates of the MSD kit and incubated for 1 h at ambient temperature, with shaking. Four washes are carried out with 150 μl of Tris Wash Buffer of the MSD kit. 25 μl of the MSD sulfo-tag detection antibody solution are added to the wells and incubated for 1 h at ambient temperature, with shaking. Four washes are carried out with 150 μl of Tris Wash Buffer of the MSD kit. 150 μl of Read Buffer of the MSD kit are added to the wells and the plates are read immediately on the S12400 instrument from Meso Scale Discovery.
The instrument measures a signal for each well. Wells without cells and containing the lysis buffer serve to determine the background noise that will be subtracted from all the measurements (min). The wells containing cells in the absence of product and in the presence of 0.1% DMSO are considered to be the 100% signal (max). The percentage inhibition is calculated for each concentration of test product according to the following formula: (1-((test−min)/(max−min)))×100.
The activity of the product is translated to IC50, obtained from a dose-response curve of the various concentrations tested and representing the dose giving 50% specific inhibition (absolute IC50). 2 independent experiments make it possible to calculate the mean of the IC50 values.

[3] = tested on: P. falciparum (highly chloroquine-resistant strain Fcm29-Cameroon); test: Antimalarial activity test (radioactive micromethod of Desjardins, tritiated hypoxanthine incorporation); conditions: Plasmodium falciparum, Erythrocyte, infected human erythrocytes, 48 h
Method: Antimalarial Activity Test
The antimalarial activity tests are carried out according to the radioactive micromethod of Desjardins (R. E. Desjardins, C. J. Canfield, J. D. Haynes, J. D. Chulay, Antimicrob. Agents Chemother., 1979, 16, 710-718). The assays are carried out in 96-well microplates (Test Plates Ref. 92696, Techno Plastic Products Ag, Zollstrasse 155, CH-8219 Trasadingen). The P. falciparum strains are cultured in solutions of RPMI 1640 supplemented with 5% of human serum with a haematocrit at 2% and a blood parasite concentration at 1.5%. For each assay, the parasites are incubated with selected concentrations of drugs for 48 h at 37° C. in a humid atmosphere and at 5% CO2. Artemisinin, artesunate and also chloroquine diphosphate are used as reference molecules. The first dilution of the drug is prepared at 1 mg/ml in dimethyl sulphoxide. The range of dilutions of the successive daughter solutions is also prepared in dimethyl sulphoxide. Each daughter dilution is subsequently diluted to 1/50 in RPMI 1640 supplemented with 5% of human serum, all the dilutions being carried out at 37° C. These dilutions are then added to the parasites in culture in the microplates. After addition of the drug, the parasites are in culture in RPMI 1640 containing 5% of human serum and 1% of dimethyl sulphoxide. The parasite growth is measured by incorporation of tritiated hypoxanthine (added 24 h after the beginning of the exposure to the drug) compared with the incorporation in the absence of drug.
The activity of the product is translated to % inhibition of the growth of P. falciparum (highly chloroquine-resistant strain Fcm29-Cameroon) at 1 μM and 0.1 μM in an in vitro test using infected human erythrocytes.

[4] = Homo sapiens, PC-3, P-AKT-S473, PC3 cells

Compound | IC50 ([1]; 2 hours) | IC50 ([2]; P-AKT-S473, PC3 cells) | IC50 ([1]; Homo sapiens, HeLa, 2 h) | IC50 [2, 4] | inhibition at 0.1 µM ([3]; 0.1 μM) | inhibition at 1 µM [3]
CC(c1ccccc1)N1c2nc(N3CCOCC3)cc(=O)n2C[C@@]1(C)C(F)(F)F (single isomer, unassigned) [Example 32, (2S)-2-Methyl-7-(morpholin-4-yl)-1-[(1R or 1S)-1-phenylethyl]-2-(trifluoromethyl)-2,3-dihydroimidazo[1,2-a]pyrimidin-5(1H)-one] | > 1000 nM | 22 nM |  |  |  | 
CC(c1ccccc1F)N1c2nc(N3CCOCC3)cc(=O)n2C[C@@]1(C)C(F)(F)F (single isomer, unassigned) [Example 36, (2S)-1-[(1R or 1S)-1-(2-Fluorophenyl)ethyl]-2-methyl-7-(morpholin-4-yl)-2-(trifluoromethyl)-2,3-dihydroimidazo[1,2-a]pyrimidin-5(1H)-one] |  | 4 nM | 995 nM |  |  | 
CC(c1ccccc1F)N1c2nc(N3CCOCC3)cc(=O)n2C[C@@]1(C)C(F)(F)F (single isomer, unassigned) [Example 37, (2S)-1-[(1R or 1S)-1-(2-Fluorophenyl)ethyl]-2-methyl-7-(morpholin-4-yl)-2-(trifluoromethyl)-2,3-dihydroimidazo[1,2-a]pyrimidin-5(1H)-one] | 737 nM | 19 nM |  |  |  | 
C[C@@]1(C(F)(F)F)Cn2c(nc(N3CCOCC3)c(F)c2=O)N1Cc1ccccc1 [Example 19, (2S)-1-Benzyl-6-fluoro-2-methyl-7-(morpholin-4-yl)-2-(trifluoromethyl)-2,3-dihydroimidazo[1,2-a]pyrimidin-5(1H)-one] |  |  | 425 nM | 26 nM |  | 
COc1cccc(CCN2c3nc(N4CCOCC4)cc(=O)n3C[C@@]2(C)C(F)(F)F)c1 [Example 26, (2S)-1-[2-(3-Methoxyphenyl)ethyl]-2-methyl-7-(morpholin-4-yl)-2-(trifluoromethyl)-2,3-dihydroimidazo[1,2-a]pyrimidin-5(1H)-one] |  |  |  | 16 nM | 14% | 75%
C[C@@]1(C(F)(F)F)Cn2c(nc(N3CCOCC3)cc2=O)N1CCc1ccccc1Cl [Example 27, (2S)-1-[2-(2-Chlorophenyl)ethyl]-2-methyl-7-(morpholin-4-yl)-2-(trifluoromethyl)-2,3-dihydroimidazo[1,2-a]pyrimidin-5(1H)-one] |  |  | 51 nM | 24 nM |  | 53%
C[C@@]1(C(F)(F)F)Cn2c(nc(N3CCOCC3)cc2=O)N1Cc1c[nH]c2ccccc12 [Example 33, (2S)-1-(1H-indol-3-ylmethyl)-2-methyl-7-(morpholin-4-yl)-2-(trifluoromethyl)-2,3-dihydroimidazo[1,2-a]pyrimidin-5(1H)-one] |  |  | 461 nM | 42 nM |  | 

Continued, in another order:

IC50 ([1]; 2 hours) | IC50 ([2]; P-AKT-S473, PC3 cells) | IC50 ([1]; Homo sapiens, HeLa, 2 h) | IC50 [2, 4] | Compound | inhibition at 0.1 µM ([3]; 0.1 μM) | inhibition at 1 µM [3]
 |  | 703 nM | 18 nM | C[C@@]1(C(F)(F)F)Cn2c(nc(N3CCOCC3)cc2=O)N1Cc1csc2ccc(Cl)cc12 [Example 20, (2S)-1-[(5-Chloro-1-benzothiophen-3-yl)methyl]-2-methyl-7-(morpholin-4-yl)-2-(trifluoromethyl)-2,3-dihydroimidazo[1,2-a]pyrimidin-5(1H)-one] |  | 
 |  | > 1000 nM | 7 nM | C[C@@]1(C(F)(F)F)Cn2c(nc(N3CCOCC3)cc2=O)N1C(=O)c1ccccc1 [Example 21, (2S)-2-Methyl-7-(morpholin-4-yl)-1-(phenylcarbonyl)-2-(trifluoromethyl)-2,3-dihydroimidazo[1,2-a]pyrimidin-5(1H)-one] |  | 
 |  | 314 nM | 13 nM | C[C@@]1(C(F)(F)F)Cn2c(nc(N3CCOCC3)cc2=O)N1Cc1ccc(F)c(Br)c1 [Example 24, (2S)-1-(3-Bromo-4-fluorobenzyl)-2-methyl-7-(morpholin-4-yl)-2-(trifluoromethyl)-2,3-dihydroimidazo[1,2-a]pyrimidin-5(1H)-one] |  | 
 |  | 621 nM | 28 nM | C[C@@]1(C(F)(F)F)Cn2c(nc(N3CCOCC3)cc2=O)N1Cc1cccc(F)c1F [Example 25, (2S)-1-(2,3-Difluorobenzyl)-2-methyl-7-(morpholin-4-yl)-2-(trifluoromethyl)-2,3-dihydroimidazo[1,2-a]pyrimidin-5(1H)-one] |  | 
 |  | > 1000 nM | 89 nM | C[C@@]1(C(F)(F)F)Cn2c(nc(N3CCOCC3)cc2=O)N1Cc1nc2ccccc2o1 [Example 30, (2S)-1-(1,3-Benzoxazol-2-ylmethyl)-2-methyl-7-(morpholin-4-yl)-2-(trifluoromethyl)-2,3-dihydroimidazo[1,2-a]pyrimidin-5(1H)-one] |  | 
 |  | > 1000 nM | 32 nM | Cc1ccccc1C(=O)N1c2nc(N3CCOCC3)cc(=O)n2C[C@@]1(C)C(F)(F)F [Example 35, (2S)-2-Methyl-1-[(2-methylphenyl)carbonyl]-7-(morpholin-4-yl)-2-(trifluoromethyl)-2,3-dihydroimidazo[1,2-a]pyrimidin-5(1H)-one] |  | 
